Assay results from publication PMC5663708, “Novel Benzylidene Thiazolidinedione Derivatives as Partial PPARγ Agonists and their Antidiabetic Effects on Type 2 Diabetes” (Scientific Reports, 2017).
Where two headings read alike, the source gives them in different places.

What was measured:
[1] = XTT in vitro hepatotoxicity assay on HepG2 cells; format: cell-based, human; conditions: human, highest tested concentration (1000 μM), read-out: cell viability
Experimental: (§1) HepG2 cells are considered as a useful model to study in vitro xenobiotic metabolism and liver toxicity. In particular, HepG2 cells are able to activate and detoxify xenobiotics and, they are the reason why these cells are intensively used in toxicology[58],[59]. Hepatotoxicity was determined using the XTT assay.
(§2) The final DMSO concentration was set at <0.1%. Rosiglitazone and Pioglitazone were used as positive controls. IC50 values and cell viability % were calculated.

[2] = In vitro Caco-2 permeability; format: in vitro ADME; conditions: human; for Papp A→B at 150 min, 2 µM / Papp B→A at 150 min, 2 µM: Caco-2, 2 µM, pH 6.5/7.4, n = 2; for Papp at 150 min, 2 µM: Caco-2, based on Papp,A-B, read-out: Permeability Rank
Experimental: (§3) The oral bioavailability of compounds in terms of Caco-2 and MDCK-II permeability and the P-glycoprotein (P-gp) efflux ratio were assessed. The in vitro intrinsic half-life (T1/2,int) and the apparent intrinsic clearance (CLint,app) of compounds were also measured after incubation with human liver microsomes at 37.5 °C[65]. […] Quantification was done by LC-MS/MS. P-gp substrate activity was assessed by the efflux ratio (the ratio of Papp in the B-to-A direction over that in the A-to-B direction). […] P-gp is an ATP-dependent transporter on the apical plasma membrane of enterocytes that functions to limit the entry of drugs into the cell.

[3] = tested on: P-gp; test: In vitro Caco-2 permeability; format: in vitro ADME; conditions: human; Caco-2, 2 µM, 150 min; read-out: Efflux Ratio (B > A/A > B)
Experimental: as §3

[4] = In vitro MDCK-II permeability; format: in vitro ADME; conditions: dog; for Papp A→B at 150 min, 2 µM / Papp B→A at 150 min, 2 µM: pH 7.4/7.4, n = 2; for Papp at 150 min, 2 µM: based on Papp,A-B, read-out: Permeability Rank
Experimental: as §3, with “assessed.” for “assessed. The in vitro intrinsic half-life (T1/2,int) and the apparent intrinsic clearance (CLint,app) of compounds were also measured after incubation with human liver microsomes at 37.5 °C[65].”

[5] = target: T1, human PPARγ (hPPARγ) (Homo sapiens, UniProt P37231); test: GAL-4 PPAR chimeric receptor transactivation assay in transiently transfected HepG2 cells; format: cell-based; conditions: for EC50: Gal4-hPPARγ-LBD, HepG2 cells, concentration-response curve; for Emax: maximum induction of Rosiglitazone defined as 100%; for agonist activity on hPPARα, hPPARγ, hPPARβ/δ subtypes: tested at 5 μM and 25 μM, compared with reference agonists
T1 construct: expressed in transfected cells; host or cells: HepG2 (human hepatoblastoma), transient calcium phosphate transfection
T1 sequence (P37231 238-503 limits assumed): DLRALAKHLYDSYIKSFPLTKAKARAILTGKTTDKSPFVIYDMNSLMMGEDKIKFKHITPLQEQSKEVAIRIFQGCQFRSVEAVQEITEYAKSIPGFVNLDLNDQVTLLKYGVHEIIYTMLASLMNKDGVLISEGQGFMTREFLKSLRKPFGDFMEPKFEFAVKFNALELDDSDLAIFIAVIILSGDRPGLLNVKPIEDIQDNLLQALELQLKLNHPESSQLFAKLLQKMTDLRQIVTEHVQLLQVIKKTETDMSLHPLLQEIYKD

[6] = tested on: HepG2 human hepatocellular liver carcinoma cell line; test: XTT in vitro hepatotoxicity assay on HepG2 cells; format: cell-based; conditions: at 1000 μM
Experimental: as §1, §2

[7] = tested on: Caco-2 monolayers; test: In vitro Caco-2 permeability; format: in vitro ADME
Experimental: as §3

[8] = tested on: MDCK-II monolayers; test: In vitro MDCK-II permeability; format: in vitro ADME
Experimental: as §3, with “assessed.” for “assessed. The in vitro intrinsic half-life (T1/2,int) and the apparent intrinsic clearance (CLint,app) of compounds were also measured after incubation with human liver microsomes at 37.5 °C[65].”

[9] = Caco-2, 2 µM, 150 min, pH 6.5/7.4, n = 2
[10] = 2 µM, 150 min, pH 7.4/7.4, n = 2

Compound	viability at 1000 µM [1] [%]	Papp A→B at 150 min, 2 µM [2] [×10⁻⁶ cm/s]	Papp B→A at 150 min, 2 µM [2] [×10⁻⁶ cm/s]	Papp at 150 min, 2 µM [2] [×10⁻⁶ cm/s]	efflux ratio at 150 min, 2 µM [3]	Papp A→B at 150 min, 2 µM [4] [×10⁻⁶ cm/s]	Papp B→A at 150 min, 2 µM [4] [×10⁻⁶ cm/s]	Papp at 150 min, 2 µM [4] [×10⁻⁶ cm/s]	EC50 [5] [µM]	Emax ([5]; HepG2, read-out: Emax) [%]	agonist activity on hPPARα, hPPARγ, hPPARβ/δ subtypes [5]	cell viability compared with Rosiglitazone [6]	Avg Papp A to B [7, 9] [×10⁻⁶ cm/s]	Avg Papp B to A [7, 9] [×10⁻⁶ cm/s]	Permeability Rank ([7]; Caco-2, based on Papp,A-B)	Avg Papp A to B [8, 10] [×10⁻⁶ cm/s]	Avg Papp B to A [8, 10] [×10⁻⁶ cm/s]	Permeability Rank ([8]; based on Papp,A-B)	Emax [5] [%]
CCN(CC)C(=O)CN1C(=O)S/C(=C\c2ccccc2)C1=O [1i]	64 ± 3.93	23	51.2	≥ 5	2.7	16.3	11.9	≥ 5	9.6 ± 0.8	23 ± 5	weak to moderate selective activity towards PPARγ	–	–	–	–	–	–	–	–
CCCCNC(=O)CN1C(=O)S/C(=C\c2ccccc2)C1=O [1a]	–	–	–	–	–	–	–	–	7 ± 1.3	–	weak to moderate selective activity towards PPARγ	did not show any significant difference	2.4	14.3	Low (Low, Papp,A-B < 5 × 10^−6 cm/sec)	1.8	2.5	Low (Low, Papp,A-B < 5 × 10^−6 cm/sec)	5.3 ± 0.3
CCCCNC(=O)CN1C(=O)S/C(=C\c2ccc(Cl)cc2)C1=O [3a]	–	1.6	19.3	< 5	3.2	0.8	0.4	< 5	5.9 ± 0.6	31.6 ± 1	selective activity towards PPARγ	did not show any significant difference	–	–	–	–	–	–	–
